{"source": "patent US20240325353A1", "about": "“COMPOUND FOR TREATMENT OF COGNITIVE DISORDERS” (Syndesi Therapeutics SA, priority 2021, published 2024)", "key": {"[1]": {"assay": "treatment-emergent adverse events, multiple dose study in young male subjects", "format": "in vivo, human", "excerpt": "Details on the adverse events occurring in the study is provided below. As may be seen the doses of interest were safe and well tolerated."}, "[2]": {"assay": "rodent preclinical cognitive deficit models", "format": "in vivo", "conditions": "range of rodent preclinical cognitive deficit models"}}}
{"compound": "O=C1C[C@H](c2cc(F)c(F)c(F)c2)CN1Cn1ncnc1Cl", "note": "[compound of example 1, (4R)-1-[(5-chloro-1H-1,2,4-triazol-1-yl)methyl]-4-(3,4,5-trifluorophenyl)pyrrolidin-2-one]", "values": [{"measurement": "At least 1 TEAE definitively related to treatment, n (%)", "setting": "[1]; 5 mg, N = 6", "value": "0 n (%)"}, {"measurement": "At least 1 TEAE possibly related to treatment, n (%)", "setting": "[1]; 5 mg, N = 6", "value": "0 n (%)"}, {"measurement": "At least 1 TEAE probably related to treatment, n (%)", "setting": "[1]; 5 mg, N = 6", "value": "0 n (%)"}, {"measurement": "At least one TEAE, n (%)", "setting": "[1]; 5 mg, N = 6", "value": "0 n (%)"}, {"measurement": "At least 1 TEAE definitively related to treatment, n (%)", "setting": "[1]; 10 mg, N = 6", "value": "0 n (%)"}, {"measurement": "At least 1 TEAE possibly related to treatment, n (%)", "setting": "[1]; 10 mg, N = 6", "value": "0 n (%)"}, {"measurement": "At least 1 TEAE probably related to treatment, n (%)", "setting": "[1]; 10 mg, N = 6", "value": "1 (16.7) n (%)"}, {"measurement": "At least one TEAE, n (%)", "setting": "[1]; 10 mg, N = 6", "value": "2 (33.3) n (%)"}, {"measurement": "At least 1 TEAE definitively related to treatment, n (%)", "setting": "[1]; 20 mg, N = 6", "value": "0 n (%)"}, {"measurement": "At least 1 TEAE possibly related to treatment, n (%)", "setting": "[1]; 20 mg, N = 6", "value": "4 (66.7) n (%)"}, {"measurement": "At least 1 TEAE probably related to treatment, n (%)", "setting": "[1]; 20 mg, N = 6", "value": "0 n (%)"}, {"measurement": "At least one TEAE, n (%)", "setting": "[1]; 20 mg, N = 6", "value": "4 (66.7) n (%)"}, {"measurement": "At least 1 TEAE definitively related to treatment, n (%)", "setting": "[1]; all doses, N = 18", "value": "0 n (%)"}, {"measurement": "At least 1 TEAE possibly related to treatment, n (%)", "setting": "[1]; all doses, N = 18", "value": "4 (22.2) n (%)"}, {"measurement": "At least 1 TEAE probably related to treatment, n (%)", "setting": "[1]; all doses, N = 18", "value": "1 (5.6) n (%)"}, {"measurement": "At least one TEAE, n (%)", "setting": "[1]; all doses, N = 18", "value": "6 (33.3) n (%)"}, {"measurement": "pro-cognitive effects", "setting": "[2]", "value": "possesses pro-cognitive effects"}]}
